Reference: patent publication US12162863B2, “Modulators of stimulator of interferon genes (STING)” (RYVU THERAPEUTICS S.A., priority 2018, dated 2024)

Assays:
[1] = tested on: NF-κB pathway in THP-1 dual cells; assay: THP-1 Dual Reporter Assay, NF-κB pathway (SEAP reporter); format: cell-based; conditions: Homo sapiens, THP1-Dual, 18 h of stimulation, absorbance at 630 nm, read-out: THP1 Dual EC50 (μM) NFkB
Description: (§1) THP-1 Dual Reporter Assay
(§2) Compounds of the present invention were tested for their activity using THP-1 dual cells (Invivogen, cat no. thpd-nfis) allowing for simultaneous study of NF-κB pathway and the interferon regulatory factor (IRF) pathway. THP-1 dual cells contain luciferase reporter gene under the control of an ISG54 (interferon-stimulated gene) minimal promoter in conjunction with five interferon-stimulated response elements and a secreted embryonic alkaline phosphatase reporter gene under the control an IFN (interferon)-β minimal promoter fused to five copies of the NF-κB consensus transcriptional response element with three copies of the c-Rel binding site. Following 18 h of stimulation with STING agonist, medium was collected and transferred onto fresh cell culture plate. To verify activity of the IRF pathway, luminescence activity was measured with standard laboratory plate reader immediately after addition 10 μl of the medium to 50 μl of luminescence reagent (Invivogen, cat. No. rep-qlc2). To verify activity of NF-κB pathway, 20 μl of the medium was mixed with 80 μl of a detection medium (Invivogen, cat. No. rep-qb2) and incubated for 2 hours at 37° C. in a humidified atmosphere containing 5% CO2. Next, absorbance at 630 nm was recorded using standard laboratory plate reader.

[2] = tested on: interferon regulatory factor (IRF) pathway in THP-1 dual cells; assay: THP-1 Dual Reporter Assay, IRF pathway (luciferase reporter); format: cell-based; conditions: Homo sapiens, THP1-Dual, 18 h of stimulation, luminescence
Description: as §1, §2

human STING = human STING (Homo sapiens, UniProt Q86WV6); assay: Fluorescence Thermal Shift assay; format: binding; conditions: 50 μM compound; STING 0.1 mg/ml; 20 minutes preincubation; read-out: [hSTING] FTS, ΔTm [° C.] for 50 μM
human STING, sequence (Q86WV6 whole entry H232R): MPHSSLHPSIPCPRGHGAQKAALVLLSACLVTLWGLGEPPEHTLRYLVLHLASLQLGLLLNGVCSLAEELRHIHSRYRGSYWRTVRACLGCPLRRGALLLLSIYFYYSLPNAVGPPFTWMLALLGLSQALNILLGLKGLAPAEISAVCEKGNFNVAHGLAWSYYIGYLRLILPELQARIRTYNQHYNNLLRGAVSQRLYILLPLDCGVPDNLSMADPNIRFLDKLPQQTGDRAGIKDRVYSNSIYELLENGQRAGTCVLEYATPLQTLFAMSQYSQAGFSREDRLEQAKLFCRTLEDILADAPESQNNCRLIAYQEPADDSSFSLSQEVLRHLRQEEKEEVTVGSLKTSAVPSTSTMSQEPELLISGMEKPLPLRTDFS
Description: Fluorescence Thermal Shift Assay Compounds of the present invention were tested for binding to human STING in Fluorescence Thermal Shift assay. STING was preincubated with the compounds for 20 minutes in 50 mM Hepes, 150 mM NaCl, pH 7.5 in 16 μl volume, following by adding 4 μl of SyproOrange dye dilution (ThermoFisher, cat no. S-6651). Final STING concentration was 0.1 mg/ml. Thermal unfolding was performed in Real-Time PCR QuantStudio 6 Flex System (Applied Biosystems), from 25 to 99° C., with continuous ramp mode and ramp rate 0.033° C./s. The data were analyzed using Protein Thermal Shift Software (ThermoFisher). […] For example, ΔTm [° C.] of FTS assay for following examples are: […]

SMILES	EC50 [1] [µM]	EC50 [2] [µM]	ΔTm at 50 µM (human STING) [°C]
O=c1c(CN(CCCn2cnc3ccccc32)Cc2ccncc2F)coc2c1ccc1ccccc12 [Example 85, 3-({[3-(1H-1,3-benzodiazol-1-yl)propyl][(3-fluoropyridin-4-yl)methyl]amino}methyl)-4H-benzo[h]chromen-4-one]	≥ 20	≥ 20	< 2.5
COc1cc(CN(CCCc2cncnc2)Cc2cn(C)c3ccccc3c2=O)ccn1 [Example 96, 3-({[(2-methoxypyridin-4-yl)methyl][3-(pyrimidin-5-yl)propyl]amino}methyl)-1-methyl-1,4-dihydroquinolin-4-one]	≤ 10	≤ 10	> 2.5
COc1cc(CN(CCCn2ccnc2)Cc2coc3c(C)c(C)ccc3c2=O)ccn1 [Example 51, 3-({[3-(1H-imidazol-1-yl)propyl][(2-methoxypyridin-4-yl)methyl]amino}methyl)-7,8-dimethyl-4H-chromen-4-one]	≤ 10	≤ 10	> 2.5
O=c1c(CN(CCCn2cnc3ccccc32)Cc2ccncc2)coc2ccccc12 [Example 17, 3-({[3-(1H-1,3-benzodiazol-1-yl)propyl](pyridin-4-ylmethyl)amino}methyl)-4H-chromen-4-one]	10 to 20	≤ 10	> 2.5
Cc1oc2cc(N3CCN(C)CC3)c(F)cc2c(=O)c1CN(CCCn1cnc2cncnc21)Cc1ccncc1 [Example 79, 6-fluoro-2-methyl-7-(4-methylpiperazin-1-yl)-3-({[3-(9H-purin-9-yl)propyl][(pyridin-4-yl)methyl]amino}methyl)-4H-chromen-4-one]	≤ 10	≤ 10	> 2.5
COc1cc(CN(CCCc2cccnc2)Cc2c(C)oc3cc(N4CCOCC4)c(F)cc3c2=O)ccn1 [Example 77, 6-fluoro-3-({[(2-methoxypyridin-4-yl)methyl][3-(pyridin-3-yl)propyl]amino}methyl)-2-methyl-7-(morpholin-4-yl)-4H-chromen-4-one]	≤ 10	≤ 10	< 2.5
Cc1ccc2c(=O)c(CN(CCCn3ccnn3)Cc3ccncc3)coc2c1C [Example 14, 7,8-dimethyl-3-{[(pyridin-4-ylmethyl)[3-(1H-1,2,3-triazol-1-yl)propyl]amino]methyl}-4H-chromen-4-one]	10 to 20	10 to 20	> 2.5
COc1ccc2ccc3c(=O)c(CN(CCCn4cnc5ccccc54)Cc4ccncc4)coc3c2c1 [Example 62, 3-({[3-(1H-1,3-benzodiazol-1-yl)propyl][(pyridin-4-yl)methyl]amino}methyl)-9-methoxy-4H-benzo[h]chromen-4-one]	≤ 10	≤ 10	> 2.5
O=c1c(CN(CCCn2ccnn2)Cc2ccncc2)coc2cc(Br)ccc12 [Example 22, 7-bromo-3-{[(pyridin-4-ylmethyl)[3-(1H1,2,3-triazol-1-yl)propyl]amino]methyl}-4H-chromen-4-one]	≥ 20	10 to 20	< 2.5
COc1ccc(-c2ccc3c(=O)c(CN(CCCn4ccnc4)Cc4ccncc4)coc3c2)cc1OC [Example 38, 7-(3,4-dimethoxyphenyl)-3-({[3-(1H-imidazol-1-yl)propyl][(pyridin-4-yl)methyl]amino}methyl)-4H-chromen-4-one]	≥ 20	≥ 20	< 2.5
O=c1c(CN(CCCn2cnc3ncccc32)Cc2ccncc2)coc2c1ccc1ccccc12 [Example 68, 3-{[(3-{1H-imidazo[4,5-b]pyridin-1-yl}propyl)(pyridin-4-ylmethyl)amino]methyl}-4H-benzo[h]chromen-4-one]	≤ 10	≤ 10	> 2.5
O=c1c(CN(CCCc2cncc3ccccc23)Cc2ccncc2)coc2c1ccc1ccccc12 [Example 61, 3-({[3-(isoquinolin-4-yl)propyl][(pyridin-4-yl)methyl]amino}methyl)-4H-benzo[h]chromen-4-one]	≥ 20	≥ 20	< 2.5
Cc1oc2cc(C(=O)O)c(F)cc2c(=O)c1CN(CCCc1cccnc1)Cc1ccncc1 [Example 80, 6-fluoro-2-methyl-4-oxo-3-({[3-(pyridin-3-yl)propyl][(pyridin-4-yl)methyl]amino}methyl)-4H-chromene-7-carboxylic acid]	≥ 20	≥ 20	< 2.5
Cc1ccc2c(=O)c(CN(CCCc3cccnc3)Cc3ccncc3)c(C)oc2c1C [Example 55, 2,7,8-trimethyl-3-({[3-(pyridin-3-yl)propyl][(pyridin-4-yl)methyl]amino}methyl)-4H-chromen-4-one]	≤ 10	≤ 10	> 2.5
COc1cc(CN(Cc2coc3c(ccc4ccccc43)c2=O)C(C)CCc2cccnc2)ccn1 (stereo not drawn) [Example 83, 3-({[(2-methoxypyridin-4-yl)methyl][4-(pyridin-3-yl)butan-2-yl]amino}methyl)-4H-benzo[h]chromen-4-one]	≤ 10	≤ 10	< 2.5
COc1cc(CN(CCCn2ccnc2)Cc2coc3c(ccc4ccccc43)c2=O)ccn1 [Example 30, 3-({[3-(1H-imidazol-1-yl)propyl][(2-methoxypyridin-4-yl)methyl]amino}methyl)-4H-benzo[h]chromen-4-one]	≤ 10	≤ 10	> 2.5

Results, then the molecule that gave them:

EC50 [1] [µM]	EC50 [2] [µM]	ΔTm at 50 µM (human STING) [°C]	SMILES
10 to 20	≤ 10	> 2.5	Cc1oc2ccccc2c(=O)c1CN(CCCn1ccnc1)Cc1ccncc1 [Example 36, 3-({[3-(1H-imidazol-1-yl)propyl][(pyridin-4-yl)methyl]amino}methyl)-2-methyl-4H-chromen-4-one]
≥ 20	≤ 10	< 2.5	COc1cc(CN(CCCn2ccnc2)Cc2c(C)oc3ccccc3c2=O)ccn1 [Example 46, 3-({[3-(1H-imidazol-1-yl)propyl][(2-methoxypyridin-4-yl)methyl]amino}methyl)-2-methyl-4H-chromen-4-one]
≥ 20	≥ 20	> 2.5	O=c1c(CN(CCCn2ccnc2)Cc2ccncc2)coc2cc(-c3ccc(F)cc3)ccc12 [Example 23, 7-(4-fluorophenyl)-3-({[3-(1H-imidazol-1-yl)propyl](pyridin-4-ylmethyl)amino}methyl)-4H-chromen-4-one]
≤ 10	≤ 10	> 2.5	O=c1c(CN(CCCn2ccnc2)Cc2ccncc2)coc2c1ccc1ccccc12 [Example 7, 3-({[3-(1H-imidazol-1-yl)propyl](pyridin-4-ylmethyl)amino}methyl)-4H benzo[h]chromen-4-one]
≥ 20	10 to 20	< 2.5	Cc1cc(CN(CCCn2ccnc2)Cc2coc3ccccc3c2=O)ccn1 [Example 25, 3-({[3-(1H-imidazol-1-yl)propyl][(2-methylpyridin-4-yl)methyl]amino}methyl)-4H-chromen-4-one]
≥ 20	≥ 20	< 2.5	O=c1c(CN(CCCn2cccn2)Cc2ccncc2)coc2ccccc12 [Example 3, 3-({[3-(1H-pyrazol-1-yl)propyl](pyridin-4-ylmethyl)amino}methyl)-4H-chromen-4-one]
10 to 20	≤ 10	> 2.5	O=c1c(CN(CCCn2ccnc2)Cc2ccncc2)coc2cc(-c3cc[nH]n3)ccc12 [Example 71, 3-({[3-(1H-imidazol-1-yl)propyl](pyridin-4-ylmethyl)amino}methyl)-7-(1H-pyrazol-3-yl)-4H-chromen-4-one]
≥ 20	≥ 20	< 2.5	COc1cc(CN(CCCn2ccnc2)Cc2coc3ccccc3c2=O)ccn1 [Example 18, 3-({[3-(1H-imidazol-1-yl)propyl][(2-methoxypyridin-4-yl)methyl]amino}methyl)-4H-chromen-4-one]
≤ 10	≤ 10	< 2.5	O=c1c(CN(CCCn2ccnc2)Cc2ccncc2)coc2c3c(ccc12)CCCC3 [Example 20, 3-({[3-(1H-imidazol-1-yl)propyl](pyridin-4-ylmethyl)amino}methyl)-4H,7H,8H,9H,10-cyclohexa[h]chromen-4-one]
≥ 20	≥ 20	< 2.5	Cc1ccc2c(=O)c(CN(CCCn3cccc3)Cc3ccncc3)coc2c1C [Example 15, 7,8-dimethyl-3-{[(pyridin-4-ylmethyl)[3-(1H-pyrrol-1-yl)propyl]amino]methyl}-4H-chromen-4-one]
